The source of these data is patent US6649367B2, “Human cancer cell line malignantly altered by expression of angiogenic factor” (Eisai Co., Ltd, priority 2001, dated 2003).

The test deals with KP-1/VEGF cells. The experiment in a line: Effect on in vivo angiogenesis induced by KP-1/VEGF (chamber transplanted in mouse dorsal air sac, 51Cr-labelled blood cells). Conditions: for In vivo angiogenesis inhibitory effect: =(X−B)/(A−B)×100, A control, B collagen, X administered group; for In vivo angiogenesis-inducing activity (volume of blood vessel): C57BL/6N mouse, KP-1/VEGF chamber, four days after transplantation. On the procedure: 3×10^6 cells/0.17 ml suspension of KP-1/VEGF cells was prepared using a collagen solution. In a chamber formed by adhering 0.45-μm Durapore filter membrane (Millipore) to a chamber ring (Millipore), 0.17 ml of the suspension was injected through the injection inlet and sealed. An air sac of about 10 ml was formed on dorsal subcutaneous portion of a 6-week-old female C57BL/6N mouse under anesthesia and the chamber enclosing the cells therein was transplanted in the air sac.
From the day of transplantation, ZD6474 as a VEGFR kinase inhibitor and ZD1839(Iressa) as an EGFR kinase inhibitor were each orally administered in dosage of 25, 50 or 100 mg/kg once a day for 4 days.
Four days after the transplantation, 2,500,000 cpm/ml of blood cell suspension prepared by labeling the cells with sodium chromate (^51Cr) (Amersham Pharmacia) was injected in an amount of 0.2 ml each through the tail vein of the chamber-transplanted mouse, and then the skin portion contacting the chamber was cut out and the radioactivity thereof was measured by use of a γ-counter. From the measured radioactivity, the amount of blood (volume of blood vessel) was calculated and was used as an index of in vivo angiogenesis-inducing activity.
Further, providing that the in vivo angiogenesis-inducing activity of control is A, the in vivo angiogenesis-inducing activity of collagen is B, and the in vivo angiogenesis-inducing activity of each administered group is X, in vivo angiogenesis inhibitory effect was obtained by the following equation. In vivo angiogenesis inhibitory effect (%)

[1] abbreviates: 25 mg/kg orally once a day for 4 days.
Where [2] appears, read: 50 mg/kg orally once a day for 4 days.
[3] abbreviates: 100 mg/kg orally once a day for 4 days.

`COc1cc2c(Nc3ccc(Br)cc3F)ncnc2cc1OCC1CCN(C)CC1` [ZD6474]: the “In vivo angiogenesis inhibitory effect” value is given as 68.0% under setting [1], 40.8% under setting [2] and −10.9% under setting [3]. Moreover, the “In vivo angiogenesis-inducing activity (volume of blood vessel)” value reads like this: under setting [1], 2.56 ± 0.26 µL; under setting [2], 2.18 ± 0.38 µL; under setting [3], 1.47 ± 0.40 µL.

Regarding `COc1cc2ncnc(Nc3ccc(F)c(Cl)c3)c2cc1OCCCN1CCOCC1` [ZD1839], the “In vivo angiogenesis-inducing activity (volume of blood vessel)” value amounted to 2.75 ± 0.66 µL under setting [1], 2.77 ± 0.47 µL under setting [2] and 2.76 ± 0.73 µL under setting [3].
